Source: ChEMBL document CHEMBL1124125, “6-(Alkylamino)-3-aryl-1,2,4-triazolo[3,4-a]phthalazines. A new class of benzodiazepine receptor ligands” (J Med Chem, 1988)

Assays:
[1] = biological target: T1, GABA-A receptor; anion channel (Rattus norvegicus) (UniProt O09028+P15431+P18506+P18508+P19969+P20236+P23574+P23576+P28471+P28473+P30191+P62813+P63079+P63138+Q91ZM7+Q9ES14); test: GABA ratio (IC50/IC50 in the presence of 10e-4 GABA).; format: protein-complex assay
Mus musculus [2] = test: Inhibition of Anti-pentylenetetrazole-induced convulsions in mice following i.p. administration.; format: functional; settings: ip
[3] = Lethal dose when given intraperitoneally in mice; format: toxicity, organism-based; settings: mouse, in vivo, ip
[4] = biological target: GABA-A receptor; anion channel; test: Inhibition of [3H]diazepam binding to GABA-A central benzodiazepine receptor of rat brain homogenate
Mus musculus [5] = test: Dose that prevented tonic extensor seizures and death in 50% of the mice.(ip); format: functional
Mus musculus [6] = species on record: Mus musculus; test: Anticonvulsant activity of the compound when maximal electroshock is induced in mouse; format: functional
Mus musculus [7] = test: Anticonvulsant activity of the compound when lethal dose of strychnine given subcutaneously in mouse; format: ADME, organism-based; settings: in vivo, sc
Mus musculus [8] = test: Activity was measured by rotarod test by intraperitoneal administration in mouse.; format: functional; settings: ip
Rattus norvegicus = test: Minimal effective dose (MED, ip) that significantly increased the number of shocks (anticonflict); format: functional; settings: read-out: MED
[9] = biological target: T1, GABA-A receptor; anion channel (Rattus norvegicus); test: Relative inhibition of [3H]diazepam binding to GABA-A receptor of rat forebrain in the presence and absence of GABA(10e-4M)
Mus musculus [10] = test: Antagonism of Diazepam muscle relaxant effect by compound (10 mg/kg, ip) was measured as the ratio of fallen/treated mice.; format: functional
Mus musculus [11] = test: Antagonism of Diazepam muscle relaxant effect by compound (30 mg/kg, ip) was measured as the ratio of fallen/treated mice.; format: functional

SMILES | Ratio [1] | ED50 (Mus musculus [2]) | LD50 [3] | Ki [4] | ED50 (Mus musculus [5]) | other results
NC(=O)c1ccc(-c2nnc3c4ccccc4c(N4CCCC4)nn23)cc1 | 1.1 | ≥ 50 mg/kg | 200 mg/kg | 113 nM | – | –
N#Cc1ccc(-c2nnc3c4ccccc4c(N4CCCC4)nn23)cc1 | 1.1 | ≥ 100 mg/kg | 600 mg/kg | 102 nM | – | –
Brc1ccccc1-c1nnc2c3ccccc3c(N3CCCC3)nn12 | – | – | 600 mg/kg | 760 nM | > 100 mg/kg | –
COCCN(CCOC)c1nn2c(-c3cccc(Cl)c3)nnc2c2ccccc12 | – | ≥ 100 mg/kg | 600 mg/kg | 307 nM | – | –
COCCN(CCOC)c1nn2c(-c3ccc(Cl)cc3)nnc2c2ccccc12 | 1.3 | – | 600 mg/kg | 17 nM | 60.1 mg/kg | –
Cc1nnc2ccc(-c3cccc(C(F)(F)F)c3)nn12 [CI-218872] | – | – | – | – | – | ED50 (Mus musculus [6]): 30 mg/kg; ED50 (Mus musculus [7]): 30 mg/kg; ED50 (Mus musculus [8]): 10 mg/kg
c1ccc(-c2nnc3c4ccccc4c(N4CCOCC4)nn23)cc1 | 0.95 | ≥ 100 mg/kg | 300 mg/kg | 14 nM | – | –
Oc1ccc(-c2nnc3c4ccccc4c(N4CCCC4)nn23)cc1 | 1.1 | – | 600 mg/kg | 11 nM | > 100 mg/kg | –
COc1cc(OC)c(-c2nnc3c4ccccc4c(N4CCCC4)nn23)cc1OC | – | – | 300 mg/kg | 1930 nM | > 50 mg/kg | –
COCCN(CCOC)c1nn2c(-c3ccc(OC)c(C)c3)nnc2c2ccccc12 | – | – | 400 mg/kg | 1820 nM | > 100 mg/kg | –
c1ccc(-c2ccc(-c3nnc4c5ccccc5c(N5CCCC5)nn34)cc2)cc1 | – | – | 400 mg/kg | > 3000 nM | > 75 mg/kg | –
c1ccc(-c2nnc3c4ccccc4c(N4CCCCC4)nn23)cc1 | 1 | ≥ 100 mg/kg | 600 mg/kg | 16 nM | – | –
COc1cc(-c2nnc3c4ccccc4c(N4CCCC4)nn23)cc(Br)c1OC | – | – | 600 mg/kg | > 3000 nM | > 100 mg/kg | –
COCCNc1nn2c(-c3ccc(OC)cc3)nnc2c2ccccc12 | 1.1 | ≥ 50 mg/kg | 200 mg/kg | 5.4 nM | – | –
FC(F)(F)c1cccc(-c2nnc3c4ccccc4c(N4CCCC4)nn23)c1 | – | ≥ 100 mg/kg | 600 mg/kg | > 3000 nM | – | –
COCCN(CCOC)c1nn2c(-c3ccc(F)cc3)nnc2c2ccccc12 | 1.5 | 60.1 mg/kg | 600 mg/kg | 20 nM | – | –
CCCCCOc1ccc(-c2nnc3c4ccccc4c(N4CCCC4)nn23)cc1OC | – | – | 200 mg/kg | > 3000 nM | > 50 mg/kg | –
CCN(C)c1nn2c(-c3ccccc3)nnc2c2ccccc12 | 1.1 | ≥ 50 mg/kg | 300 mg/kg | 14.4 nM | – | –
COCCN(CCOC)c1nn2c(-c3ccccc3)nnc2c2ccccc12 | – | – | 200 mg/kg | 66 nM | 34.2 mg/kg | minimal effective dose (Rattus norvegicus): 15 mg/kg; Ratio [9]: 1.6
COCCN(CCOC)c1nn2c(-c3ccc(C)cc3)nnc2c2ccccc12 | 1.9 | 20.4 mg/kg | 400 mg/kg | 44 nM | – | minimal effective dose (Rattus norvegicus): 10 mg/kg
CC(=O)Nc1ccc(-c2nnc3c4ccccc4c(N4CCCC4)nn23)cc1 | 1.1 | ≥ 100 mg/kg | 600 mg/kg | 36 nM | – | –
CCN(CC)c1nn2c(-c3ccccc3)nnc2c2ccccc12 | – | – | 600 mg/kg | 41 nM | > 100 mg/kg | Ratio [9]: 0.9
COCCN(CCOC)c1nn2c(-c3ccc(OC(C)C)cc3)nnc2c2ccccc12 | 1.8 | – | 600 mg/kg | 142 nM | 20.7 mg/kg | minimal effective dose (Rattus norvegicus): 10 mg/kg
CN(C)c1nn2c(-c3ccccc3)nnc2c2ccccc12 | – | – | 400 mg/kg | 20.8 nM | > 75 mg/kg | Fallen/treated (Mus musculus [10]): 5; Fallen/treated (Mus musculus [11]): 2; Ratio [9]: 1.1
